Consider 25 compounds from patent US20250115597A1, “TYK2 INHIBITORS AND COMPOSITIONS AND METHODS THEREOF” (LYNK PHARMACEUTICALS CO. LTD., priority 2021, published 2025).

For this assay, the target named is T1, Ba/F3-FL-TYK2-P760L cells (Homo sapiens, UniProt P29597, P760L, cells depend on it).
T1 construct: BaF3-FL-T2P760L (nM)
Kind of assay: Anti-proliferative assay, Ba/F3-FL-TYK2-P760L cells (Cell-Titer Glo). Conditions: 72 h, read-out: BaF3-FL-T2P760L IC50. It counts as cell-based. As for the experimental part: Anti-Proliferative Assay Dimerization domain of Tel protein fused with JAK kinase domain was permanently transduced into Ba/F3 cells, whose proliferation is dependent on JAK activity in the absence of IL-3 induction. These engineered Ba/F3 cells (Ba/F3-FL-TYK2-[…], Ba/F3-TEL-TYK2 and Ba/F3-TEL-JAK2) were used to monitor JAK inhibitory activities of the compounds in the cellular. […] Cells were seeded at 2000/well of white flat bottom 96-well plates. The well containing medium only was used as background control. After 24 h growth, cells were treated with compounds. The test compounds were dissolved in DMSO to a stock concentration of 20 mM. 3-fold serially diluted compounds for 9 concentrations with top concentration of 20 μM was added into the each well. […] The cells continued to grow at 37° C. in 5% CO2 for 72 h after compound treatment. The viability was measured by cellular ATP determination using the Cell-Titer Glo luciferase reagent (Promega). The Luminescence value was recorded by a multi-label reader Envision (PerkinElmer).

T1 sequence (P29597 whole entry P760L): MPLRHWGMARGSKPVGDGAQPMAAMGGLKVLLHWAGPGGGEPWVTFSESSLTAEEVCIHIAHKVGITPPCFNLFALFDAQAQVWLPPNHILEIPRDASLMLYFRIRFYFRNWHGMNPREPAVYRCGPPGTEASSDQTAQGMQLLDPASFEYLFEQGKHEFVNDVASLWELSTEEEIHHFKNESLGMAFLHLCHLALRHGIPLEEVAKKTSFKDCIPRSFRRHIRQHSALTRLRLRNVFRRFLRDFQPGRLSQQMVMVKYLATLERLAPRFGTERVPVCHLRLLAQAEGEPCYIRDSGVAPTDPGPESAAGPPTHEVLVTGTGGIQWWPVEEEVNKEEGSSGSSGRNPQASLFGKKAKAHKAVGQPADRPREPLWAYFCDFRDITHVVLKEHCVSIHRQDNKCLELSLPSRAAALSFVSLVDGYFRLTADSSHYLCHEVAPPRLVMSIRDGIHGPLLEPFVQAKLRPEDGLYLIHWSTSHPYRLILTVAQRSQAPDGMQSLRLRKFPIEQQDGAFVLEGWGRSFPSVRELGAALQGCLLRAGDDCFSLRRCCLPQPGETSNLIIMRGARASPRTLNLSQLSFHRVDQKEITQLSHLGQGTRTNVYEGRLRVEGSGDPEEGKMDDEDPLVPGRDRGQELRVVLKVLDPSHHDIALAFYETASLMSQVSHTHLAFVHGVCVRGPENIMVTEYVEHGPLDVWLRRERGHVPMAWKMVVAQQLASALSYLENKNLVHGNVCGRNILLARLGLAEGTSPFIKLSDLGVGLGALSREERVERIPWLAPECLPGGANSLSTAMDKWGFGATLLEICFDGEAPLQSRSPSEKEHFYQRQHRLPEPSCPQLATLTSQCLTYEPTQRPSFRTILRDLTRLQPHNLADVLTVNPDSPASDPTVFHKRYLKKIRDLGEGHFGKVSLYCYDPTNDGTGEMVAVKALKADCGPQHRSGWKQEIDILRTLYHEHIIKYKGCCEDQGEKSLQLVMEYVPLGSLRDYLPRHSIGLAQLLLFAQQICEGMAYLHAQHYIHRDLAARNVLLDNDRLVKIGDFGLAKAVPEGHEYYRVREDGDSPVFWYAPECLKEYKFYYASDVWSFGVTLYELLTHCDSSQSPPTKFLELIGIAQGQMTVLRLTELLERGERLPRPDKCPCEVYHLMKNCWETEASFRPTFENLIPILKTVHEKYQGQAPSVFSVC

For `CNC(=O)c1nnc(Nc2ccc(F)cn2)cc1Nc1cccc(OC2CCOCC2)c1OC` [Example 25, 6-((5-Fluoropyridin-2-yl)amino)-4-((2-methoxy-3-((tetrahydro-2H-pyran-4-yl)oxy)phenyl)amino)-N-methylpyridazine-3-carboxamide], the GI50 is 7820 nM.

Turning to `[2H]C([2H])([2H])NC(=O)c1cnc(Nc2cccc(C(F)(F)F)n2)nc1Nc1cccc(-c2ncn(C)n2)c1OC` [Example 62, 4-((2-Methoxy-3-(1-methyl-1H-1,2,4-triazol-3-yl)phenyl)amino)-N-(methyl-d3)-2-((6-(trifluoromethyl)pyridin-2-yl)amino)pyrimidine-5-carboxamide], the GI50 amounted to 1180 nM.

Consider `[2H]C([2H])([2H])NC(=O)c1cnc(NC(=O)C2CC2)cc1Nc1csc2c(Cl)cn(C(C)C)c(=O)c12` [Example 175, 4-((7-Chloro-5-isopropyl-4-oxo-4,5-dihydrothieno[3,2-c]pyridin-3-yl)amino)-6-(cyclopropanecarboxamido)-N-(methyl-d3)nicotinamide], for which the GI50 is 124 nM.

Consider `[2H]C([2H])([2H])NC(=O)c1cnc(NC(=O)C2CC2)cc1Nc1cnn2c1C(=O)N(CC(F)(F)F)CC2` [Example 46, 6-(Cyclopropanecarboxamido)-N-(methyl-d3)-4-((4-oxo-5-(2,2,2-trifluoroethyl)-4,5,6,7-tetrahydropyrazolo[1,5-a]pyrazin-3-yl)amino) nicotinamide], for which the GI50 is 372 nM.

With `[2H]C([2H])([2H])NC(=O)c1cnc(NC(=O)C2CC2)cc1Nc1nn(CCOC)c2ccn(CC(F)(F)F)c(=O)c12` [Example 54, 6-(Cyclopropanecarboxamido)-4-((1-(2-methoxyethyl)-4-oxo-5-(2,2,2-trifluoroethyl)-4,5-dihydro-1H-pyrazolo[4,3-c]pyridin-3-yl)amino)-N-(methyl-d3)nicotinamide], the GI50 came to 1090 nM.

`[2H]C([2H])([2H])NC(=O)c1cnc(NC(=O)C2CC2)cc1Nc1ccc2onc(CC)c2c1OC` [Example 233, 6-(Cyclopropanecarboxamido)-4-((3-ethyl-4-methoxybenzo[d]isoxazol-5-yl)amino)-N-(methyl-d3)nicotinamide]: the GI50 is 3270 nM.

Turning to `CNC(=O)c1cnc(Nc2ccc(F)cn2)cc1Nc1cccc(C2(F)CC2)c1OC` [Example 56, 4-((3-(1-Fluorocyclopropyl)-2-methoxyphenyl)amino)-6-((5-fluoropyridin-2-yl)amino)-N-methylnicotinamide], the GI50 is 285 nM.

For the compound `[2H]C([2H])([2H])NC(=O)c1cnc(NC(=O)C2CC2)cc1Nc1cn(C)c2ccn([C@@H]3CCOC3)c(=O)c12` [Example 114, (R)-6-(cyclopropanecarboxamido)-N-(methyl-d3)-4-((1-methyl-4-oxo-5-(tetrahydrofuran-3-yl)-4,5-dihydro-1H-pyrrolo[3,2-c]pyridin-3-yl)amino)nicotinamide], the GI50 amounted to 1100 nM.

As to `[2H]C([2H])([2H])NC(=O)c1cnc(Nc2ccc(F)cc2)nc1Nc1csc2ccn(C)c(=O)c12` [Example 29, 2-((4-Fluorophenyl)amino)-N-(methyl-d3)-4-((5-methyl-4-oxo-4,5-dihydrothieno [3,2-c]pyridin-3-yl)amino) pyrimidine-5-carboxamide], the GI50 was > 20000 nM.

In the case of `[2H]C([2H])([2H])NC(=O)c1nnc2cc1Nc1cc(cc(-c3ncn(C)n3)c1OC)CCC(O)c1nc(ccc1F)N2` (stereo not shown) [Example 92, 18-Fluoro-16-hydroxy-10-methoxy-N-(methyl-d3)-11-(1-methyl-1H-1,2,4-triazol-3-yl)-2,4,5,8,21-pentaazatetracyclo[15.3.1.1^{3,7}.1^{9,13}]tricosa-1(20),3,5,7(23),9(22),10,12,17(21),18-nonaene-6-carboxamide], the GI50 worked out at 300 nM.

For `[2H]C([2H])([2H])NC(=O)c1cnc(NC(=O)C2CC2)cc1Nc1ccc2cnn(CCOC)c2c1OC` [Example 130, 6-(Cyclopropanecarboxamido)-4-((7-methoxy-1-(2-methoxyethyl)-1H-indazol-6-yl)amino)-N-(methyl-d3)nicotinamide], the GI50 came out at 357 nM.

With `CNC(=O)c1cnc(Nc2ccc(F)cn2)nc1Nc1cccc(-c2ncn(C)n2)c1OC` [Example 5, 2-((5-Fluoropyridin-2-yl)amino)-4-((2-methoxy-3-(1-methyl-1H-1,2,4-triazol-3-yl)phenyl)amino)-N-methylpyrimidine-5-carboxamide], the GI50 came out at 1350 nM.

With `[2H]C([2H])([2H])NC(=O)c1cnc(NC(=O)C2CC2)cc1Nc1ccc2nnn(CC)c2c1OC` [Example 164, 6-(Cyclopropanecarbonylamino)-4-[(3-ethyl-4-methoxy-benzotriazol-5-yl)amino]-N-(trideuteriomethyl)pyridine-3-carboxamide], the GI50 is 349 nM.

For `[2H]C([2H])([2H])NC(=O)c1cnc(NC(=O)C2CC2)cc1Nc1csc2cnn(C(C)C(F)(F)F)c(=O)c12` (single isomer, unassigned) [Example 185B, (S*)-6-(Cyclopropanecarboxamido)-N-(methyl-d3)-4-((4-oxo-5-(1,1,1-trifluoropropan-2-yl)-4,5-dihydrothieno[2,3-d]pyridazin-3-yl)amino)nicotinamide], the GI50 is 912 nM.

For `[2H]C([2H])([2H])NC(=O)c1cnc(NC(=O)C2CC2)cc1Nc1csc2cnn(C(C)CC)c(=O)c12` (stereo not shown) [Example 180, 4-((5-(Sec-butyl)-4-oxo-4,5-dihydrothieno[2,3-d]pyridazin-3-yl)amino)-6-(cyclopropanecarboxamido)-N-(methyl-d3)nicotinamide], the GI50 turned out to be 1350 nM.

In the case of `COC(=O)c1cnc(NC(=O)C2CC2)cc1Nc1csc2c(C#N)cn(C)c(=O)c12` [Example 186, Methyl 4-((7-cyano-5-methyl-4-oxo-4,5-dihydrothieno[3,2-c]pyridin-3-yl)amino)-6-(cyclopropanecarboxamido)nicotinate], the GI50 is 309 nM.

For `[2H]C([2H])([2H])NC(=O)c1cnc(NC(=O)C2CC2)cc1Nc1cn(CCOC2CC2)c2ccn(CC)c(=O)c12` [Example 221, 6-(Cyclopropanecarboxamido)-4-((1-(2-cyclopropoxyethyl)-5-ethyl-4-oxo-4,5-dihydro-1H-pyrrolo[3,2-c]pyridin-3-yl)amino)-N-(methyl-d3)nicotinamide], the GI50 turned out to be 294 nM.

For the compound `[2H]C([2H])([2H])NC(=O)c1cnc(NC(=O)C2CC2)cc1Nc1csc2c(F)cn(C)c(=O)c12` [Example 177, 6-(Cyclopropanecarboxamido)-4-((7-fluoro-5-methyl-4-oxo-4,5-dihydrothieno[3,2-c]pyridin-3-yl)amino)-N-(methyl-d3)nicotinamide], the GI50 was 91 nM.

Turning to `[2H]C([2H])([2H])NC(=O)c1cnc(NC(=O)C2CC2)cc1Nc1cn(C)c2ccn(CC(=O)OCC)c(=O)c12` [Example 117, Ethyl 2-(3-((2-(cyclopropanecarboxamido)-5-((methyl-d3)carbamoyl)pyridin-4-yl)amino)-1-methyl-4-oxo-1,4-dihydro-5H-pyrrolo[3,2-c]pyridin-5-yl)acetate], the GI50 was 249 nM.

As to `[2H]C([2H])([2H])NC(=O)c1cnc(NC(=O)C2CC2)cc1Nc1csc2cnn(CCOCC)c(=O)c12` [Example 183, 6-(Cyclopropanecarboxamido)-4-((5-(2-ethoxyethyl)-4-oxo-4,5-dihydrothieno[2,3-d]pyridazin-3-yl)amino)-N-(methyl-d3)nicotinamide], the GI50 came out at 710 nM.

Take `[2H]C([2H])([2H])NC(=O)c1cnc(NC(=O)C2CC2)cc1Nc1ccc2cnn(C3CC3)c2c1OC([2H])([2H])[2H]` [Example 145, 6-(Cyclopropanecarboxamido)-4-((1-cyclopropyl-7-(methoxy-d3)-1H-indazol-6-yl)amino)-N-(methyl-d3)nicotinamide]: the GI50 is 83.6 nM.

`CNC(=O)c1cnc2nc1Nc1cc(cc(-c3ncn(C)n3)c1OC)COCc1cc(cc(C(F)(F)F)c1)N2` [Example 37, 10-Methoxy-N-methyl-11-(1-methyl-1H-1,2,4-triazol-3-yl)-19-(trifluoromethyl)-15-oxa-2,4,8,23-tetraazatetracyclo[15.3.1.1^{3,7}.1^{9,13}]tricosa-1(20),3,5,7(23),9(22),10,12,17(21),18-nonaene-6-carboxamide]: the GI50 was 988 nM.

For the compound `[2H]C([2H])([2H])NC(=O)c1nnc2cc1Nc1cc(cc(-c3ncn(C)n3)c1OC)CNCc1nc(ccc1F)N2` [Example 87, 18-Fluoro-10-methoxy-N-(methyl-d3)-11-(1-methyl-1H-1,2,4-triazol-3-yl)-2,4,5,8,15,21-hexaazatetracyclo[15.3.1.1^{3,7}.1^{9,13}]tricosa-1(20),3,5,7(23),9(22),10,12,17(21),18-nonaene-6-carboxamide], the GI50 turned out to be 584 nM.

Take `[2H]C([2H])([2H])NC(=O)c1cnc(NC(=O)C2CC2)cc1Nc1cn(C)c2ccn(-c3cc(C)n(C)n3)c(=O)c12` [Example 119, 6-(Cyclopropanecarbonylamino)-4-[[5-(1,5-dimethylpyrazol-3-yl)-1-methyl-4-oxo-pyrrolo[3,2-c]pyridin-3-yl]amino]-N-(methyl-d3)pyridine-3-carboxamide]: the GI50 came out at 1510 nM.

In the case of `[2H]C([2H])([2H])NC(=O)c1cnc(NC(=O)C2CC2)cc1Nc1cn(C)c2ccn(-c3ccn(C)n3)c(=O)c12` [Example 118, 6-(Cyclopropanecarbonylamino)-4-[[1-methyl-5-(1-methylpyrazol-3-yl)-4-oxo-pyrrolo[3,2-c]pyridin-3-yl]amino]-N-(methyl-d3)pyridine-3-carboxamide], the GI50 came out at 1060 nM.
